Experimental data from article PMC11079024, “Identification of a family of species-selective complex I inhibitors as potential anthelmintics” (Nature Communications, 2024).
“And” between values parts separate entries of the source, which are not always exact repeats. Equal values may be shown once. Read-outs that look alike come from different tables or passages of the source.

Experiments:
[1] = system: adult H. polygyrus; format: cell-based, Heligmosomoides polygyrus; conditions: for Worm viability score, individual worms (Worm1-Worm20): scale from 0 (dead) to 3 (motile)
Procedure: (§1) After either 24- or 72 h chemical treatment, worm viability was manually scored by an examiner using a scale from 0 (dead) to 3 (motile); DMSO was used as a negative control in both 24- and 72 h treatments. The percentage of affected worms (i.e., worms with a score equal to or lower than 1.5) in each biological replicate is shown; data are from two biological replicates. Within each boxplot, black horizontal lines denote group medians, boxes span from the 25th to the 75th percentile of each group’s distribution, and whiskers extend to the maximum and minimum values.
The eleven benzimidazole derivatives were tested at a concentration of 10 µM under aerobic conditions against L3 and adult H. polygyrus.
For the larval assay, mice feces were collected 2 weeks post-infection and eggs were isolated. The eggs were left on agar at room temperature in the dark for eight to 10 days to allow them to develop into L3. Next, 30–40 L3 were incubated (37 °C, 5% CO2) in the culture medium (RPMI 1640 medium + 1% pen./strep. + 5% amphotericin B) containing the derivatives in 96-well plate (Corning, USA) reaching a final volume of 250 µL for 24 h. For the adult drug screening assay, female NMRI mice were euthanized with CO2 and adult H. polygyrus were dissected out of the intestines. Subsequently, three worms were exposed to the culture medium (RPMI 1640 medium + 1% pen./strep. + 5% amphotericin B) with the derivatives (2 mL) in a 24-well plate (Corning, USA) for either 24 or 72 h. DMSO ( < 1%) served as a negative control in both assays. All conditions were tested in duplicates. Finally, 80 µL of hot water ( ~ 80 °C) for L3 and 500 µL of hot water (~80 °C) for adults were added to the wells to check for their viability under a microscope (Carl Zeiss, Germany). Larvae were categorized as being either alive or dead, depending on whether they moved or not. […] The whole experiment was performed two times i.e., two independent biological replicates for both life stages (L3s and adults) and exposure times (24 and 72 h).

[2] = system: adult H. polygyrus; assay: microbe, parasite or virus in culture; format: cell-based, Heligmosomoides polygyrus; conditions: anaerobic, 24 hours after treatment; for Percent Worms Affected: adult H. polygyrus, affected = score equal to or lower than 1.5; for # of Worms Affected: worms with score equal to or lower than 1.5; for Worm viability score, individual worms (Worm1-Worm20): scale from 0 (dead) to 3 (motile)
Procedure: To investigate the impact of the eleven benzimidazole derivatives under anaerobic conditions, an anaerobic chamber with an integrated incubator (Coy Laboratory Products, USA) was used. The same procedure was followed as described for the aerobic drug screening in adult H. polygyrus, but the incubation took place within the anaerobic chamber (37 °C, 85% N2, 10% CO2, 5% H2). Benzimidazole derivatives were tested at a concentration of 10 µM. For scoring, the plates had to be removed from the anaerobic chamber. The whole experiment was performed two times i.e., two independent biological replicates.
as §1, with “The activities of eleven benzimidazole derivatives were tested against adult H. polygyrus viability in vitro under aerobic (+, white boxplots) and anaerobic (–, coloured boxplots) conditions (see Methods). After” for “After”, “24-hour” for “either 24- or 72 h”, “aerobic” for “24-”, “anaerobic conditions; levamisole was used as a positive control in anaerobic conditions.” for “72 h treatments.”, “values. […]” for “values.”

[3] = system: C. elegans; assay: C. elegans chemical screens of RIKEN NPD libraries at 50 μM (hit identification in KCN survival and development/viability assays); format: cell-based, Caenorhabditis elegans
[4] = system: ben-1 mutant (ECA882) C. elegans; assay: microbe, parasite or virus in culture; conditions: Caenorhabditis elegans
Procedure: Liquid development and viability assays were adapted from a previously established chemical screening protocol (Burns et al.)[24]. In brief, a saturated culture of E. coli HB101 was concentrated 2-fold in liquid NGM and 40 μL of this suspension was distributed to each well of a 96-well flat-bottom culture plate. 0.5 μL chemical solution (or DMSO alone) was added to each well (1% DMSO v/v) using either a multi-channel pipette or a pinning tool (V&P Scientific). L1 worms synchronized from an embryo preparation performed the day prior were diluted to a concentration of ~2 worms/μL in M9 buffer; 10 μL worm suspension was then added to each well. Culture plates were sealed with parafilm and placed in a plastic container lined with wet paper towels to prevent evaporation. Containers were then incubated for 6 days at 20 °C with shaking at 165 rpm. Following incubation, 300 μL M9 was added to each well to decrease the turbidity of the HB101-NGM suspension. Single images of each microplate well were then taken on a Nikon Ti Eclipse inverted microscope (Nikon NIS Elements AR). Images were processed using Python scripts to isolate worm-associated pixels from background. Scores of worm development and viability were determined as the sum of worm-associated pixels in each well. Development/viability scores for each well were divided by the development /viability scores for the corresponding DMSO controls, resulting in a relative viability value for each chemical. At least three biological replicates were performed for each dose-response experiment; relative viability values were averaged across replicates. […]
anthelmintics. a. Chemical structures of four commercial benzimidazole anthelmintics (e.g., albendazole, […]
Dose response of four commercial […]
elegans strains: N2, wild type; ECA882, deletion (ben-1); ECA917, F200Y (ben-1); ECA1075, F167Y (ben-1); ECA1080, E198A (ben-1); CB3474, G104D (ben-1). The colour-coded scale denotes the phenotypic outcome of drug treatment (e.g., motility or viability) relative to DMSO controls; white/pale- […]
death and arrested development. c. […]
benzimidazole anthelmintics (blue) were conducted in C. elegans development and viability assays for wild type (N2) and ben-1 mutant (ECA882) C. elegans (see Supplementary Date File 1).
All data used for generation of dose-response curves is the mean of at least three […]
Supplementary Figure 7 (continued). Davie et al.

[5] = target: C. elegans (N2) complex I (NADH:ubiquinone oxidoreductase) (Caenorhabditis elegans, UniProt P24887+Q93873+Q94360); assay: biochemical; format: biochemical; conditions: for Log IC50 C. elegans complex I: log10 of IC50 in µM, C. elegans mitochondria
Sequence of C. elegans (N2) complex I (NADH:ubiquinone oxidoreductase) (Q94360 17-199): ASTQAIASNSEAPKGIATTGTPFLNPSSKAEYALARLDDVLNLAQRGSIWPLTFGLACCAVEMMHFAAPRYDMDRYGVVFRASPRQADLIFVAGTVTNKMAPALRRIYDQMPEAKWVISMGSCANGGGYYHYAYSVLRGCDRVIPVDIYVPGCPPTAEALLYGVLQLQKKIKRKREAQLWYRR
Sequence of C. elegans (N2) complex I (NADH:ubiquinone oxidoreductase) (P24887 whole entry): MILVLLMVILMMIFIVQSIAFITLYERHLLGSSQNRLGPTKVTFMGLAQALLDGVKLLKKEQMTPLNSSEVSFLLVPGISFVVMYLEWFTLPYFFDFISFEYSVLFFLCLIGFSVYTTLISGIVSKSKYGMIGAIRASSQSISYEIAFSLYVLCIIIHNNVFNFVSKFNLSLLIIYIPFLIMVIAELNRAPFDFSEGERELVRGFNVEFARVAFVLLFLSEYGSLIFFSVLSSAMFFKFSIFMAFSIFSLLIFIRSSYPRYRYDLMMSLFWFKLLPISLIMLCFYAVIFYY
Sequence of C. elegans (N2) complex I (NADH:ubiquinone oxidoreductase) (Q93873 31-482): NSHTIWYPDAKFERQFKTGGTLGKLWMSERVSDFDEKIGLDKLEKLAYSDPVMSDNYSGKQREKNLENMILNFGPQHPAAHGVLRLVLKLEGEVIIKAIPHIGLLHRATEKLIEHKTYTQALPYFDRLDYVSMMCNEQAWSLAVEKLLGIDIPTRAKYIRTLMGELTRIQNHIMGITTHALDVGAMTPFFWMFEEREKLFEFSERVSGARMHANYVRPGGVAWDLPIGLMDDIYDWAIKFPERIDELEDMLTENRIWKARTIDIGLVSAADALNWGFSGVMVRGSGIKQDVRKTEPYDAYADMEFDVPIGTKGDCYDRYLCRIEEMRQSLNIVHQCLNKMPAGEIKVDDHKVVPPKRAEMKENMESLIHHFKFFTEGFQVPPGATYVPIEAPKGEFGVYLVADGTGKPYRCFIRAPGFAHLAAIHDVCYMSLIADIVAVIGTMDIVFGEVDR
Summary of the method: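 Compounds were tested against freeze-thawed isolated mitochondria (0.2 mg/mL protein). NADH:decylubiquinone activity was monitored via DCIP absorbance at 600 nm, and the initial linear slope was normalised to solvent controls.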

[6] = target: B. taurus (heart) complex I (Bos taurus, UniProt P03887+P17694+P42026); assay: biochemical; format: biochemical; conditions: for IC50: B. taurus heart mitochondria, read-out: B. taurus Complex I IC50; for Log IC50 B. taurus complex I: log10 of IC50 in µM, B. taurus mitochondria
Sequence of B. taurus (heart) complex I (P03887 whole entry): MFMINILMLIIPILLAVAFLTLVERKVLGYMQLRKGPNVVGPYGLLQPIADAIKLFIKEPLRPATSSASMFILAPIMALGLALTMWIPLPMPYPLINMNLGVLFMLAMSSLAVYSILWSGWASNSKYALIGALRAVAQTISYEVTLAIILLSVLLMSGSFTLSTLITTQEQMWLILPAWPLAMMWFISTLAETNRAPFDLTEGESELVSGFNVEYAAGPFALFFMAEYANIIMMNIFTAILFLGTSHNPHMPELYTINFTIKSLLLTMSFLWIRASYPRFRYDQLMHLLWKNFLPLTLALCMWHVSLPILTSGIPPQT
Sequence of B. taurus (heart) complex I (P17694 34-463): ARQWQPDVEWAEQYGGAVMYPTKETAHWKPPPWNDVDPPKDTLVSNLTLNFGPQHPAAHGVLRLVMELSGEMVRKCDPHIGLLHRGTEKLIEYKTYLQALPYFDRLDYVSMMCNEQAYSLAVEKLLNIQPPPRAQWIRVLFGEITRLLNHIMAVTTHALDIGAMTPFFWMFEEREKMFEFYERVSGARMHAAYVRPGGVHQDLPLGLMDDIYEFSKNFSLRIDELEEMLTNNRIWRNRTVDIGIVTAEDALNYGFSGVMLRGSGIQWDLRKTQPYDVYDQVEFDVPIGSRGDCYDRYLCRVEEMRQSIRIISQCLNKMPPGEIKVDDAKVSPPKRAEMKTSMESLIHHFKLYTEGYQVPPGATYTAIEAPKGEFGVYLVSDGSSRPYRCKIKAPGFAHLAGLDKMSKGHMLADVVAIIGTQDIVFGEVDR
Sequence of B. taurus (heart) complex I (P42026 38-216): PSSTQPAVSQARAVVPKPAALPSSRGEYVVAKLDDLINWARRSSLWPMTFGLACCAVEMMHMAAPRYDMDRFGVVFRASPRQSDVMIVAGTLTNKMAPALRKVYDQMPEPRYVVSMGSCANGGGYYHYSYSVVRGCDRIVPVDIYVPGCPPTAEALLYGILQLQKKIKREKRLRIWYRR
Procedure: Six 8–10-week-old C57Bl/6 female mice (Charles River) were freshly dissected, and their livers and hearts collected into separate 1.5 mL microcentrifuge tubes. Organs were flash-frozen in liquid nitrogen and stored at −80 °C prior to use. The heart of a freshly slaughtered adult cow was obtained from a local abattoir (Peel Sausage Inc.), chopped into ~1-inch cubes and collected into 50 mL falcon tubes. Falcon tubes were flash-frozen in a container of dry ice and stored at −80 °C prior to use. Isolation of mitochondria from all mammalian tissue was carried out following the protocol described above. However, due to size, the initial homogenization of tissue was performed by 15 strokes in a dounce homogenizer (mouse heart) or with several 5 s pulses in small Nutribullet blender (cow heart). All mouse protocols for mouse care and dissection were reviewed and approved by the University of Toronto Animal Care Committee, in accordance with the Canadian Council on Animal Care.
The enzymatic activities of individual ETC complexes (I-IV) were assessed spectrophotometrically in isolated mitochondria using a Varioskan LUX Multimode plate reader (ThermoFisher Scientific). Mitochondrial pellets previously isolated were thawed on ice and resuspended in ice-cold isolation buffer (250 mM sucrose, 10 mM Tris (pH 7.5), 1 mM EDTA). The BCA assay (Walker, 1994) was used to quantify the protein concentration of mitochondria suspensions; solutions were diluted to a concentration of 0.2 mg/mL for use in all assays. For the complex I assay, mitochondria pellets were freeze-thawed on ice three times to increase enzyme accessibility. […] 20 μL mitochondria suspension was then added/mixed with a pipette to initiate the reaction. Immediately following the addition of mitochondria, absorbance was measured (complex I and II: 600 nm; complex III and IV: 550 nm) in 30 s intervals over 15 min. Enzymatic activity was determined in each reaction by plotting absorbance versus time and calculating the slope of the curve during the initial linear phase of the reaction. […] Percent activity of each complex was calculated by dividing the enzyme-specific activity of each well by the enzyme-specific activity of the corresponding solvent controls.
Chemical solutions were prepared in complex I assay buffer composed of 25 mM KPi buffer (pH 7.5), 3 mg/mL bovine serum albumin (BSA), 80 μM NADH, 60 μM decylubiquinone, 160 μM DCIP, 2 μM antimycin A and 2 mM KCN.
For preliminary screens of hit compounds, compounds were screened at 100 μM; data are the average of at least three biological replicates. The complex I and II activity assays were used for additional dose-response experiments. […] For dose responses of benzimidazole analogs, data represent the average of two biological replicates. For all other dose-responses, data represent the average of at least three biological replicates.

[7] = system: L1 wild-type C. elegans; conditions: 50 μM compound; […]; hit = relative motility below 0.25 3 hours after removal of KCN
[8] = in vitro; conditions: human
[9] = system: L1 wild-type C. elegans; assay: microbe, parasite or virus in culture; conditions: Caenorhabditis elegans, read-out: C. elegans KCN Survival Assay LC50, estimated from fitted dose-response curves; mean of at least two biological replicates
[10] = adult H. polygyrus, in vitro, aerobic, 24 hours, per biological replicate
[11] = adult H. polygyrus, in vitro, aerobic, 72 hours, per biological replicate
[12] = read-out: C. elegans (ben-1) Development & Viability Assay LC50
[13] = read-out: C. elegans ben-1 log10 LC50 (converted)
[14] = in vitro complex I dose response on C. elegans mitochondria, average of at least two biological replicates, fit in R (DRC), read-out: IC50 C. elegans complex I
[15] = wild-type (N2) mitochondria, read-out: C. elegans Complex I IC50

CC(C)Cc1ccc(C(C)c2nc3ccccc3n2C)cc1 (racemic) [NPD87890]
Worm viability score of individual worm, scale from 0 (dead) to 3 (motile) [1]: 1 and 0.5 | Percent Worms Affected ([1]; adult H. polygyrus, aerobic, replicate 1, 24 hours after treatment, affected = score equal to or lower than 1.5): 100% | # of Worms Affected [1, 10]: 3 and 6 | Percent Worms Affected (worms with a score equal to or lower than 1.5) [1, 10]: 50% and 100% | Worm viability score of individual worm, scale from 0 (dead) to 3 (motile) ([1]; adult H. polygyrus, in vitro, aerobic, 24 hours, single worms): 2 (2×) and 2.5 and 1.5 and 1 and 1.25 (5×) | # of Worms Affected [1, 11]: 5 and 6 | Percent Worms Affected (worms with a score equal to or lower than 1.5) [1, 11]: 83% and 100% | Worm viability score of individual worm, scale from 0 (dead) to 3 (motile) ([1]; adult H. polygyrus, in vitro, aerobic, 72 hours, single worms): 2 and 1.5 and 1 (2×) and 0.5 and 0.75 (3×) | # of Worms Affected ([1]; aerobic, replicate 1, 24 hours after treatment, worms with score equal to or lower than 1.5): 6 | Worm viability score, individual worms (Worm1-Worm20) ([1]; aerobic, replicate 1, 24 hours after treatment): 1.25 (5×) and 1 | # of Worms Affected ([1]; aerobic, replicate 2, 24 hours after treatment, worms with score equal to or lower than 1.5): 3 | Worm viability score, individual worms (Worm1-Worm20) ([1]; aerobic, replicate 2, 24 hours after treatment): 2 (2×) and 2.5 and 1 (2×) and 1.5 | Percent Worms Affected ([2]; replicate 1): 100% | Percent Worms Affected ([2]; replicate 2): 100% | # of Worms Affected ([2]; replicate 1): 6 | Worm viability score, individual worms (Worm1-Worm20) ([2]; replicate 1): 0.5 (3×) and 0 (2×) and 1 | # of Worms Affected ([2]; replicate 2): 6 | Worm viability score, individual worms (Worm1-Worm20) ([2]; replicate 2): 1.5 and 1 (5×)

CC[C@@]1(O)C(=O)OCc2c1cc1n(c2=O)Cc2cc3ccccc3nc2-1 [Camptothecin, reference compound]
Hit Type ([3]; screened at 50 μM in triplicate, […], KCN = KCN survival assay, Dev. & Viability = development/viability assay): Dev. & Viability

COc1cccc2c1cc([N+](=O)[O-])c1c(C(=O)O)cc3c(c12)OCO3 [Aristolochic acid, reference compound]
Hit Type [3]: Dev. & Viability

Cc1nc2ccccc2n1Cc1ccc(F)cc1 [Compound 7360886]
LC50 [4, 12]: 170 µM | LC50 [4, 13]: 169 µM | IC50 [5, 14]: 0.93 µM | Log IC50 C. elegans complex I [5]: -0.03 µM | IC50 [5, 15]: 0.93 µM | IC50 ([5]; wild-type C. elegans mitochondria, estimated from fitted dose-response curves, read-out: C. elegans Complex I IC50): 0.93 µM | IC50 ([6]; estimated from fitted dose-response curves): 4.54 µM | Log IC50 B. taurus complex I [6]: 0.66 µM | Screen "Hit" [7]: Y (hits were identified as compounds that reduced relative motility below 0.25 (75% reduction)) | CC50 at 2 days [8]: > 100 µM | LC50 [9]: 27 µM

Cn1c(Cc2ccc(Cl)cc2)nc2ccccc21 [Compound 9005666]
LC50 [4, 12]: 193 µM | LC50 [4, 13]: 193 µM | IC50 [5, 14]: 8.27 µM | Log IC50 C. elegans complex I [5]: 0.92 µM | IC50 [5, 15]: 8.27 µM | IC50 ([5]; wild-type C. elegans mitochondria, read-out: C. elegans Complex I IC50): 8.27 µM | IC50 [6]: 33.3 µM | Log IC50 B. taurus complex I [6]: 1.52 µM | Screen "Hit" [7]: Y (hits were identified as compounds that reduced relative motility below 0.25 (75% reduction)) | CC50 at 2 days [8]: > 100 µM | LC50 [9]: 28.6 µM
